According to the NIST ThermoML archive (doi:10.1016/j.tca.2015.03.023):
± gives the expanded uncertainty stated by the source.

Legend:
[1] = 298.15 K, Liquid
[2] = mn = molality of the nth substance listed, in mol/kg; conditions: 298.15 K, 100 kPa, Liquid; for viscosity: Capillary tube (Ostwald / Ubbelohde) method; for speed of sound: Frequency=1 MHz, Linear variable-path acoustic interferometer; for mass density: Vibrating tube method; for molar conductivity: Alternating current cell with electrodes

CNC=O [N-methylformamide]
Conditions	speed of sound [m/s]
[1], 100 kPa, Frequency=1 MHz, Linear variable-path acoustic interferometer	1430.3 ± 2.5

[1], 101.33 kPa
Conditions	mass density [kg/m3]	viscosity [mPa·s]
Capillary tube (Ostwald / Ubbelohde) method	–	1.653 ± 0.034
Vibrating tube method	999.12 ± 1	–

CNC=O [N-methylformamide] + [K+].[O-][Cl+3]([O-])([O-])[O-]
[2], m2 = 0
Conditions	mass density [kg/m3]	speed of sound [m/s]	viscosity [mPa·s]
–	999.12 ± 1	1430.3 ± 2.5	1.653 ± 0.034

[K+].[O-][Cl+3]([O-])([O-])[O-] [potassium perchlorate] + CNC=O
[2]
Conditions	mass density [kg/m3]	molar conductivity [S·m2/mol]	speed of sound [m/s]	viscosity [mPa·s]
m1 = 0.0004439	–	0.00119 ± 0.0002	–	–
m1 = 0.0005285	–	0.00117 ± 0.0002	–	–
m1 = 0.0006265	–	0.00115 ± 0.0002	–	–
m1 = 0.0006838	–	0.00113 ± 0.0002	–	–
m1 = 0.000722	–	0.00113 ± 0.0002	–	–
m1 = 0.0007846	–	0.00112 ± 0.0002	–	–
m1 = 0.0008474	–	0.00112 ± 0.0002	–	–
m1 = 0.0009126	–	0.0011 ± 0.0002	–	–
m1 = 0.0009685	–	0.00109 ± 0.0002	–	–
m1 = 0.001057	–	0.00108 ± 0.0002	–	–
m1 = 0.001149	–	0.00106 ± 0.0002	–	–
m1 = 0.001216	–	0.00105 ± 0.0002	–	–
m1 = 0.00129	–	0.00103 ± 0.0002	–	–
m1 = 0.001359	–	0.00103 ± 0.0002	–	–
m1 = 0.0153	1000.04 ± 1	–	1435.8 ± 2.5	1.66 ± 0.035
m1 = 0.0304	1001.02 ± 1	–	1449.9 ± 2.5	1.665 ± 0.035
m1 = 0.0457	1002.07 ± 1	–	1471.8 ± 2.5	1.669 ± 0.035
m1 = 0.0609	1003.15 ± 1	–	1499.7 ± 2.5	1.674 ± 0.035
m1 = 0.0759	1004.25 ± 1	–	1533.7 ± 2.6	1.677 ± 0.035
m1 = 0.0911	1005.39 ± 1	–	1577.6 ± 2.6	1.681 ± 0.035

CNC=O [N-methylformamide] + [Na+].[O-][Cl+3]([O-])([O-])[O-]
[2], m2 = 0
Conditions	mass density [kg/m3]	speed of sound [m/s]	viscosity [mPa·s]
–	999.12 ± 1	1430.3 ± 2.5	1.653 ± 0.034

[Li+].[O-][Cl+3]([O-])([O-])[O-] [lithium perchlorate] + CNC=O
[2]
Conditions	mass density [kg/m3]	molar conductivity [S·m2/mol]	speed of sound [m/s]	viscosity [mPa·s]
m1 = 0.0001214	–	0.000939 ± 0.0002	–	–
m1 = 0.0001462	–	0.000926 ± 0.0002	–	–
m1 = 0.0001817	–	0.000907 ± 0.0002	–	–
m1 = 0.0002036	–	0.000895 ± 0.0002	–	–
m1 = 0.0002283	–	0.000879 ± 0.0002	–	–
m1 = 0.0002525	–	0.000875 ± 0.0002	–	–
m1 = 0.0002752	–	0.000854 ± 0.0002	–	–
m1 = 0.0003	–	0.000841 ± 0.0002	–	–
m1 = 0.0003244	–	0.000831 ± 0.0002	–	–
m1 = 0.0003557	–	0.000815 ± 0.0002	–	–
m1 = 0.0003756	–	0.000809 ± 0.0002	–	–
m1 = 0.0004004	–	0.000795 ± 0.0002	–	–
m1 = 0.0004406	–	0.000783 ± 0.0002	–	–
m1 = 0.0004687	–	0.000769 ± 0.0002	–	–
m1 = 0.015	999.44 ± 1	–	1433.8 ± 2.5	1.668 ± 0.035
m1 = 0.0301	999.85 ± 1	–	1447.3 ± 2.5	1.682 ± 0.035
m1 = 0.0452	1000.33 ± 1	–	1468.1 ± 2.5	1.696 ± 0.035
m1 = 0.0603	1000.86 ± 1	–	–	1.71 ± 0.036
m1 = 0.0604	–	–	1494.8 ± 2.5	–
m1 = 0.0755	1001.44 ± 1	–	1529.4 ± 2.6	1.725 ± 0.036
m1 = 0.0907	1002.06 ± 1	–	1569.9 ± 2.6	1.738 ± 0.036

CNC=O [N-methylformamide] + [Li+].[O-][Cl+3]([O-])([O-])[O-]
[2], m2 = 0
Conditions	mass density [kg/m3]	speed of sound [m/s]	viscosity [mPa·s]
–	999.12 ± 1	1430.3 ± 2.5	1.653 ± 0.034

[Na+].[O-][Cl+3]([O-])([O-])[O-] [sodium perchlorate] + CNC=O
[2]
Conditions	mass density [kg/m3]	molar conductivity [S·m2/mol]	speed of sound [m/s]	viscosity [mPa·s]
m1 = 0.0001833	–	0.00113 ± 0.0002	–	–
m1 = 0.0002554	–	0.00111 ± 0.0002	–	–
m1 = 0.0003247	–	0.00109 ± 0.0002	–	–
m1 = 0.0003795	–	0.00107 ± 0.0002	–	–
m1 = 0.0004397	–	0.00105 ± 0.0002	–	–
m1 = 0.0005067	–	0.00103 ± 0.0002	–	–
m1 = 0.0005588	–	0.00101 ± 0.0002	–	–
m1 = 0.000621	–	0.00099 ± 0.0002	–	–
m1 = 0.0006765	–	0.000978 ± 0.0002	–	–
m1 = 0.0007431	–	0.000963 ± 0.0002	–	–
m1 = 0.0007846	–	0.000956 ± 0.0002	–	–
m1 = 0.000822	–	0.000947 ± 0.0002	–	–
m1 = 0.0008833	–	0.000925 ± 0.0002	–	–
m1 = 0.0009622	–	0.000906 ± 0.0002	–	–
m1 = 0.0145	999.72 ± 1	–	1434.9 ± 2.5	1.664 ± 0.035
m1 = 0.0298	1000.43 ± 1	–	1449.6 ± 2.5	1.674 ± 0.035
m1 = 0.0448	1001.19 ± 1	–	1470.8 ± 2.5	1.683 ± 0.035
m1 = 0.0599	1001.99 ± 1	–	1499.1 ± 2.5	1.692 ± 0.035
m1 = 0.0751	1002.84 ± 1	–	1534.9 ± 2.6	1.702 ± 0.035
m1 = 0.0902	1003.73 ± 1	–	1576.7 ± 2.6	1.711 ± 0.036
